Experimental data from patent publication US8158656B2, “2-indolinone derivatives as multi-target protein kinase inhibitors and histone deacetylase inhibitors” (Shenzhen Chipscreen Biosciences Ltd., priority 2008, dated 2012).

Experiments:
[1] = target: T1, HDAC7 (Homo sapiens, UniProt Q8WUI4); experiment: Nur77 reporter assay in HeLa cells; assay type: cell-based; conditions: relative to CS055 at 3 μM
T1 construct: endogenous in cells; host or cells: HeLa
T1 sequence (Q8WUI4 1-952): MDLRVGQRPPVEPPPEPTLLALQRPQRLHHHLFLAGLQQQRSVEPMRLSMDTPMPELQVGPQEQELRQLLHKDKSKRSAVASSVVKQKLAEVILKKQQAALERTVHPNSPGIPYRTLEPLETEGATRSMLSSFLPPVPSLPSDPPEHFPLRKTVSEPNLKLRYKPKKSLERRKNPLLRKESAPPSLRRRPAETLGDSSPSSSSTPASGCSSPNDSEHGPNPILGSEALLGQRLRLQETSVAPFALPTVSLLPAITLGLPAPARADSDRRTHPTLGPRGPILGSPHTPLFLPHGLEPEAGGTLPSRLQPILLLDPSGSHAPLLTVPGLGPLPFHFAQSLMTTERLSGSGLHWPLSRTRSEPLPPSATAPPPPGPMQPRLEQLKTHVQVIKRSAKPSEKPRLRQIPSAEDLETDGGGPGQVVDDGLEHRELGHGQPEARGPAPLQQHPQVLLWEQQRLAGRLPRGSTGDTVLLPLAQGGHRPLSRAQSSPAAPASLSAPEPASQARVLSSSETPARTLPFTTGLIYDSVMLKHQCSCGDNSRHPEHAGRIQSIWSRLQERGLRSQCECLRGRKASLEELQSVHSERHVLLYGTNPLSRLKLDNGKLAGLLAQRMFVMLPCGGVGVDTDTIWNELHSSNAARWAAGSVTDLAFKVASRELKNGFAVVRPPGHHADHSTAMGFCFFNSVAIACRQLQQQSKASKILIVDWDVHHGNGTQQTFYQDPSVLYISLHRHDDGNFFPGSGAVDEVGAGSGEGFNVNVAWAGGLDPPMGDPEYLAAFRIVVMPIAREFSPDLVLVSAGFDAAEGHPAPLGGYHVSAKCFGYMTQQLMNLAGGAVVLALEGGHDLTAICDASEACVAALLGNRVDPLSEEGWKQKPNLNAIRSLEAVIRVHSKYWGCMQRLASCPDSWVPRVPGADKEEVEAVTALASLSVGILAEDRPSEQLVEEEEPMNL
Method: (§1) HDAC subtype selectivity inhibition assay of tested compounds was carried out by several reporter gene assays experiments. Briefly, HeLa cells were seeded in 96-well plates the day before transfection to give a confluence of 50-80%. Cells were transfected with one of reporter gene plasmid containing a promoter sequence or response element upstream of a luciferase gene construct using FuGene6 transfection reagent according to the manufacturer's instruction (Roche). The promoters or response elements including p21-promoter, gdf11-promoter, MEF-binding element (MEF2), Nur77-promoter were fused upstream to the luciferase gene reporter construct. For normalizing the transfection efficiency, a GFP expression plasmid was cotransfected. Cells were allowed to express protein for 24 hours followed by addition of individual compounds or the vehicle (DMSO). 24 hours later the cells were harvested, and the luciferase assay and GFP assay were performed using corresponding assay kits according to the manufacturer's instructions (Promega).

[2] = system: U937; experiment: Tumor cell proliferation (MTS), U937; assay type: cell-based; conditions: Homo sapiens, U-937, U937, 72 hours
Method: (§2) Measurement of in vivo cell proliferation:
(§3) Tumor cells were trypsinized and plated into 96-well plates at 3,000 per well and incubated in complete medium with 10% FBS for 24 hours. Compounds were added over a final concentration range of 100 μmol/L to 100 nmol/L in 0.1% DMSO and incubated for 72 hours in complete medium. The effects on proliferation were determined by addition of MTS reagent (Promega) according to the instruction, incubation for 2 hours at 37° C. in CO2 incubator, and record the absorbance at 490 nm using an ELISA plate reader.

[3] = system: Hut-78; experiment: Tumor cell proliferation (MTS), Hut-78; assay type: cell-based; conditions: Homo sapiens, HuT78, Hut-78, 72 hours
Method: as §2, §3

[4] = system: Ramos; experiment: Tumor cell proliferation (MTS), Ramos; assay type: cell-based; conditions: Homo sapiens, 72 hours
Method: as §2, §3

[5] = system: HeLa; experiment: Tumor cell proliferation (MTS), HeLa; assay type: cell-based; conditions: Homo sapiens, 72 hours
Method: as §2, §3

[6] = system: HUVEC cells; experiment: VEGF ligand-dependent cell proliferation; assay type: cell-based; conditions: Homo sapiens, VEGF 165 50 ng/ml, 72 hours, MTS
Method: VEGF dependent cell proliferation:
HUVEC cells were plated into 96-well plates at 6,000 per well and incubated with serum-free medium for 2 hours. Compounds and VEGF 165 (50 ng/ml) were added and incubated for 72 hours in serum-free medium. The effects on proliferation were determined by addition of MTS reagent (Promega) according to the instruction, incubation for 2 hours at 37° C. in CO2 incubator, and record the absorbance at 490 nm using an ELISA plate reader.

[7] = system: HL60; experiment: Tumor cell proliferation (MTS), HL60; assay type: cell-based; conditions: Homo sapiens, HL-60, HL60, 72 hours
Method: as §2, §3

[8] = system: Class I HDAC; experiment: P21 reporter assay in HeLa cells; assay type: cell-based, human; conditions: relative to CS055 at 3 μM
Method: as §1

[9] = system: MDA-MB-231; experiment: Tumor cell proliferation (MTS), MDA-MB-231; assay type: cell-based; conditions: Homo sapiens, MDA-MB-231, 72 hours
Method: as §2, §3

[10] = system: Jurkat; experiment: Tumor cell proliferation (MTS), Jurkat; assay type: cell-based; conditions: Homo sapiens, 72 hours
Method: as §2, §3

| Compound | HDAC7 (Nur77 reporter assay) % Max Resp of CS055 at 3 μM [1] | GI50 [2] | GI50 [3] | GI50 [4] | GI50 [5] | GI50 [6] | GI50 [7] | Class I HDAC (P21 reporter assay) % Max Resp of CS055 at 3 μM [8] | GI50 [9] | GI50 [10] |
| --- | --- | --- | --- | --- | --- | --- | --- | --- | --- | --- |
| Cc1[nH]c(/C=N/N=C2\C(=O)Nc3ccc(F)cc32)c(C)c1C(=O)NCCCCNc1ccc(C(=O)Nc2ccccc2N)cn1 [Example 10, N-(2-aminophenyl)-6-(4-(2-(((5-fluoro-2-oxoindolin-3-ylidene)hydrazono)-methyl)-3,5-dimethyl-1H-pyrrole-4-carboxamido)butylamino)nicotinamide] | 13.2% | > 60 µM | > 60 µM | > 60 µM | > 60 µM | 568 nM | 6.28 µM | 7.3% | > 60 µM | > 60 µM |
| Cc1[nH]c(/C=C2\C(=O)Nc3ccc(F)cc32)c(C)c1C(=O)NCCNc1ccc(C(=O)Nc2ccc(F)cc2N)cn1 [Example 13, (Z)-N-(2-amino-4-fluorophenyl)-6-(2-(2-((5-fluoro-2-oxoindolin-3-ylidene)-methyl)-3,5-dimethyl-1H-pyrrole-4-carboxamido)ethylamino)nicotinamide] | 6.4% | > 60 µM | > 60 µM | > 60 µM | > 60 µM | 7 nM | > 60 µM | 2.1% | > 60 µM | > 60 µM |
| Cc1[nH]c(/C=N/N=C2\C(=O)Nc3ccc(F)cc32)c(C)c1C(=O)NCCNc1ccc(C(=O)Nc2ccc(F)cc2N)cn1 [Example 14, N-(2-amino-4-fluorophenyl)-6-(2-(2-(((5-fluoro-2-oxoindolin-3-ylidene)-hydrazono)methyl)-3,5-dimethyl-1H-pyrrole-4-carboxamido)ethylamino)nicotinamide] | 4.5% | > 60 µM | > 60 µM | > 60 µM | > 60 µM | 201 nM | > 60 µM | 2.1% | > 60 µM | > 60 µM |
| Cc1[nH]c(/C=C2\C(=O)Nc3ccc(F)cc32)c(C)c1C(=O)NCCCNc1ccc(C(=O)Nc2ccc(F)cc2N)cn1 [Example 16, (Z)-N-(2-amino-4-fluorophenyl)-6-(3-(2-((5-fluoro-2-oxoindolin-3-ylidene)-methyl)-3,5-dimethyl-1H-pyrrole-4-carboxamido)propylamino)nicotinamide] | 6.5% | > 60 µM | > 60 µM | > 60 µM | > 60 µM | 39 nM | > 60 µM | 2.5% | > 60 µM | > 60 µM |
| Cc1[nH]c(/C=N/N=C2\C(=O)Nc3ccc(F)cc32)c(C)c1C(=O)NCCCNc1ccc(C(=O)Nc2ccc(F)cc2N)cn1 [Example 17, N-(2-amino-4-fluorophenyl)-6-(3-(2-(((5-fluoro-2-oxoindolin-3-ylidene)-hydrazono)methyl)-3,5-dimethyl-1H-pyrrole-4-carboxamido)propylamino)nicotinamide] | 3.5% | > 60 µM | > 60 µM | > 60 µM | > 60 µM | 460 nM | > 60 µM | 3.4% | > 60 µM | > 60 µM |
